Some results are limits rather than exact numbers.

This test in a line: Western blot analysis for "B" compounds. Format: cell-based. As to conditions: read-out: Traditional Western Degradation Potency (DC50). In a few lines:
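Target protein levels given as relative mean band intensity over GAPDH from scanned immunoblots. Lysates of treated cells in RIPA buffer, equalized by BCA, separated on 10% gels and transferred to PVDF.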
Background: In western blotting, separated proteins are transferred to a membrane and probed.
For orientation: DC50 means the concentration giving 50% degradation. In the case of `O=C1CCC(N2C(=O)c3cc4c(cc3C2=O)CN(C2CC3CCC(C2)N3CC2CCN(c3ccc([C@@H]5c6ccc(O)cc6CC[C@@H]5c5ccccc5)cc3)CC2)C4)C(=O)N1` (stereo partly drawn) [Compound B292, 2-(2,6-dioxopiperidin-3-yl)-6-(8-((1-(4-((1R,2S)-6-hydroxy-2-phenyl-1,2,3,4-tetrahydronaphthalen-1-yl)phenyl)piperidin-4-yl)methyl)-8-azabicyclo[3.2.1]octan-3-yl)-6,7-dihydropyrrolo[3,4-f]isoindole-1,3(2H,5H)-dione], the DC50 is > 0.1 µM.

Take `O=C1CCC(N2C(=O)c3cc4c(cc3C2=O)CN(CC2CCN(C(=O)C3(F)CCN(c5ccc([C@@H]6c7ccc(O)cc7CC[C@@H]6c6ccccc6)cc5)CC3)CC2)C4)C(=O)N1` (stereo partly drawn) [Compound B269, 2-(2,6-dioxopiperidin-3-yl)-6-((1-(4-fluoro-1-(4-((1R,2S)-6-hydroxy-2-phenyl-1,2,3,4-tetrahydronaphthalen-1-yl)phenyl)piperidine-4-carbonyl)piperidin-4-yl)methyl)-6,7-dihydropyrrolo[3,4-f]isoindole-1,3(2H,5H)-dione]: the DC50 was > 0.1 µM.

With `O=C1CCC(N2C(=O)c3cc4c(cc3C2=O)CN(CC(=O)N2CC3(CCN(c5ccc([C@H]6c7ccc(O)cc7CC[C@H]6c6ccccc6)cc5)CC3)C2)C4)C(=O)N1` (stereo partly drawn) [Compound B179, 2-(2,6-dioxopiperidin-3-yl)-6-(2-(7-(4-((1S,2R)-6-hydroxy-2-phenyl-1,2,3,4-tetrahydronaphthalen-1-yl)phenyl)-2,7-diazaspiro[3.5]nonan-2-yl)-2-oxoethyl)-6,7-dihydropyrrolo[3,4-f]isoindole-1,3(2H,5H)-dione], the DC50 was > 0.1 µM.

`O=C1CCC(N2C(=O)c3cc4c(cc3C2=O)CN(C2CCC(C(=O)N3CCN(c5ccc([C@@H]6c7ccc(O)cc7CC[C@@H]6c6ccccc6)cc5)CC3)CC2)C4)C(=O)N1` (stereo partly drawn) [Compound B77, 2-(2,6-dioxopiperidin-3-yl)-6-(4-(4-(4-((1R,2S)-6-hydroxy-2-phenyl-1,2,3,4-tetrahydronaphthalen-1-yl)phenyl)piperazine-1-carbonyl)cyclohexyl)-6,7-dihydropyrrolo[3,4-f]isoindole-1,3(2H,5H)-dione]: the DC50 was > 0.1 µM.

On to `O=C1CCC(N2C(=O)c3cc4c(cc3C2=O)CN(CC2(F)CN(CC3CCN(c5ccc([C@@H]6c7ccc(O)cc7CC[C@@H]6c6ccccc6)cc5)CC3)C2)C4)C(=O)N1` (stereo partly drawn) [Compound B271, 2-(2,6-dioxopiperidin-3-yl)-6-((3-fluoro-1-((1-(4-((1R,2S)-6-hydroxy-2-phenyl-1,2,3,4-tetrahydronaphthalen-1-yl)phenyl)piperidin-4-yl)methyl)azetidin-3-yl)methyl)-6,7-dihydropyrrolo[3,4-f]isoindole-1,3(2H,5H)-dione], for which the DC50 is > 0.1 µM.

Turning to `O=C1CCC(N2C(=O)c3cc4c(cc3C2=O)CN(CC(=O)N2CCC3(CC2)CC(Oc2ccc([C@@H]5c6ccc(O)cc6CC[C@@H]5c5ccccc5)cc2)C3)C4)C(=O)N1` (stereo partly drawn) [Compound B275, 2-(2,6-dioxopiperidin-3-yl)-6-(2-(2-(4-((1R,2S)-6-hydroxy-2-phenyl-1,2,3,4-tetrahydronaphthalen-1-yl)phenoxy)-7-azaspiro[3.5]nonan-7-yl)-2-oxoethyl)-6,7-dihydropyrrolo[3,4-f]isoindole-1,3(2H,5H)-dione], the DC50 is > 0.1 µM.

`O=C1CCC(N2C(=O)c3cc4c(cc3C2=O)CN([C@H]2CC[C@@H](NC3CCN(c5ccc([C@@H]6c7ccc(O)cc7CC[C@@H]6c6ccccc6)cc5)CC3)CC2)C4)C(=O)N1` (stereo partly drawn) [Compound B96, 2-(2,6-dioxopiperidin-3-yl)-6-((1S,4s)-4-((1-(4-((1R,2S)-6-hydroxy-2-phenyl-1,2,3,4-tetrahydronaphthalen-1-yl)phenyl)piperidin-4-yl)amino)cyclohexyl)-6,7-dihydropyrrolo[3,4-f]isoindole-1,3(2H,5H)-dione]: the DC50 was > 0.1 µM.

In the case of `O=C1CCC(N2Cc3cc4c(cc3C2=O)CN(CC2CCN(c3ccc([C@@H]5c6ccc(O)cc6CC[C@@H]5c5ccccc5)cc3)CC2)C4)C(=O)N1` (mixture of isomers) [Compound B1, 3-(6-((1-(4-((1R,2S)-6-hydroxy-2-phenyl-1,2,3,4-tetrahydronaphthalen-1-yl)phenyl)piperidin-4-yl)methyl)-1-oxo-3,5,6,7-tetrahydropyrrolo[3,4-f]isoindol-2(1H)-yl)piperidine-2,6-dione], the 50% degradation concentration (DC50) is > 0.1 µM.

As for `O=C1CCC(N2C(=O)c3cc4c(cc3C2=O)CC2(C4)CN(C(=O)C3CCN(c4ccc([C@@H]5c6ccc(O)cc6CC[C@@H]5c5ccccc5)cc4)CC3)C2)C(=O)N1` (stereo partly drawn) [Compound B297, 2′-(2,6-dioxopiperidin-3-yl)-1-(1-(4-((1R,2S)-6-hydroxy-2-phenyl-1,2,3,4-tetrahydronaphthalen-1-yl)phenyl)piperidine-4-carbonyl)-5′,7′-dihydro-1′H-spiro[azetidine-3,6′-cyclopenta[f]isoindole]-1′,3′(2'H)-dione], the DC50 is > 0.1 µM.

For `O=C1CCC(N2C(=O)c3cc4c(cc3C2=O)CN(C(=O)CN2CCC3(CC2)CCN(c2c(F)cc([C@@H]5c6ccc(O)cc6CC[C@@H]5c5ccccc5)cc2F)C3)C4)C(=O)N1` (mixture of isomers) [Compound B34, 6-(2-(2-(2,6-difluoro-4-((1R,2S)-6-hydroxy-2-phenyl-1,2,3,4-tetrahydronaphthalen-1-yl)phenyl)-2,8-diazaspiro[4.5]decan-8-yl)acetyl)-2-(2,6-dioxopiperidin-3-yl)-6,7-dihydropyrrolo[3,4-f]isoindole-1,3(2H,5H)-dione], the DC50 is > 0.1 µM.

With `O=C1CCC(N2C(=O)c3cc4c(cc3C2=O)CN(CC2CN(CC3CCN(c5ccc([C@@H]6c7ccc(O)cc7CC[C@@H]6c6ccc(F)cc6)cc5)CC3)C2)C4)C(=O)N1` (stereo partly drawn) [Compound B67, 2-(2,6-dioxopiperidin-3-yl)-6-((1-((1-(4-((1R,2S)-2-(4-fluorophenyl)-6-hydroxy-1,2,3,4-tetrahydronaphthalen-1-yl)phenyl)piperidin-4-yl)methyl)azetidin-3-yl)methyl)-6,7-dihydropyrrolo[3,4-f]isoindole-1,3(2H,5H)-dione], the DC50 was > 0.1 µM.

As for `O=C1CCC(N2C(=O)c3cc4c(cc3C2=O)CN(c2ncc(CN3CC(Oc5ccc([C@@H]6c7ccc(O)cc7CC[C@@H]6c6ccccc6)cc5)C3)cn2)C4)C(=O)N1` (stereo partly drawn) [Compound B89, 2-(2,6-dioxopiperidin-3-yl)-6-(5-((3-(4-((1R,2S)-6-hydroxy-2-phenyl-1,2,3,4-tetrahydronaphthalen-1-yl)phenoxy)azetidin-1-yl)methyl)pyrimidin-2-yl)-6,7-dihydropyrrolo[3,4-f]isoindole-1,3(2H,5H)-dione], the DC50 was > 0.1 µM.

For `O=C1CCC(N2Cc3c(ccc4c3OC[C@H]3CN(CC5CCN(c6ccc([C@@H]7c8ccc(O)cc8CC[C@@H]7c7ccccc7)cc6)CC5)CCN43)C2=O)C(=O)N1` (stereo partly drawn) [Compound B298, 3-((R)-7-((1-(4-((1R,2S)-6-hydroxy-2-phenyl-1,2,3,4-tetrahydronaphthalen-1-yl)phenyl)piperidin-4-yl)methyl)-1-oxo-1,3,5,5a,6,7,8,9-octahydro-2H-pyrazino[1′,2′:4,5][1,4]oxazino[2,3-e]isoindol-2-yl)piperidine-2,6-dione], the DC50 is 0.01 to 0.1 µM.

Take `O=C1CCC(N2C(=O)c3cc4c(cc3C2=O)CN(CC(=O)N2CCC3(CC2)CCN(c2ncc([C@H]5c6ccc(O)cc6CC[C@H]5c5ccccc5)cn2)CC3)C4)C(=O)N1` (mixture of isomers) [Compound B82, 2-(2,6-dioxopiperidin-3-yl)-6-(2-(9-(5-((1R,2R)-6-hydroxy-2-phenyl-1,2,3,4-tetrahydronaphthalen-1-yl)pyrimidin-2-yl)-3,9-diazaspiro[5.5]undecan-3-yl)-2-oxoethyl)-6,7-dihydropyrrolo[3,4-f]isoindole-1,3(2H,5H)-dione]: the DC50 was > 0.1 µM.

In the case of `O=C1CCC(N2C(=O)c3cc4c(cc3C2=O)CN(CC(=O)N2CCC3(CCC(Oc5ccc([C@@H]6c7ccc(O)cc7CC[C@@H]6c6ccccc6)cc5)CC3)CC2)C4)C(=O)N1` (stereo partly drawn) [Compound B279, 2-(2,6-dioxopiperidin-3-yl)-6-(2-(9-(4-((1R,2S)-6-hydroxy-2-phenyl-1,2,3,4-tetrahydronaphthalen-1-yl)phenoxy)-3-azaspiro[5.5]undecan-3-yl)-2-oxoethyl)-6,7-dihydropyrrolo[3,4-f]isoindole-1,3(2H,5H)-dione], the DC50 was > 0.1 µM.

Regarding `O=C1CCC(N2C(=O)c3cc4c(cc3C2=O)CN(C(=O)CN2CCC3(CC2)CCN(c2ccc([C@@H]5c6ccc(O)cc6CC[C@@H]5c5ccccc5)cc2)CC3)CC4)C(=O)N1` (mixture of isomers) [Compound B190, 2-(2,6-dioxopiperidin-3-yl)-6-(2-(9-(4-((1R,2S)-6-hydroxy-2-phenyl-1,2,3,4-tetrahydronaphthalen-1-yl)phenyl)-3,9-diazaspiro[5.5]undecan-3-yl)acetyl)-5,6,7,8-tetrahydro-1H-pyrrolo[3,4-g]isoquinoline-1,3(2H)-dione], the DC50 was > 0.1 µM.

Turning to `CN(C1CCC(C(=O)N2Cc3cc4c(cc3C2)C(=O)N(C2CCC(=O)NC2=O)C4=O)CC1)C1CCN(c2ccc([C@@H]3c4ccc(O)cc4CC[C@@H]3c3ccccc3)cc2)CC1` (stereo partly drawn) [Compound B200, 2-(2,6-dioxopiperidin-3-yl)-6-(4-((1-(4-((1R,2S)-6-hydroxy-2-phenyl-1,2,3,4-tetrahydronaphthalen-1-yl)phenyl)piperidin-4-yl)(methyl)amino)cyclohexane-1-carbonyl)-6,7-dihydropyrrolo[3,4-f]isoindole-1,3(2H,5H)-dione], the DC50 fell in the range of 0.01 to 0.1 µM.

`O=C1CCC(N2Cc3c(ccc4c3OC[C@H]3CN(C(=O)C5CCN(c6ccc([C@@H]7c8ccc(O)cc8CC[C@@H]7c7ccccc7)cc6)CC5)CCN43)C2=O)C(=O)N1` (stereo partly drawn) [Compound B295, 3-((R)-7-(1-(4-((1R,2S)-6-hydroxy-2-phenyl-1,2,3,4-tetrahydronaphthalen-1-yl)phenyl)piperidine-4-carbonyl)-1-oxo-1,3,5,5a,6,7,8,9-octahydro-2H-pyrazino[1′,2′:4,5][1,4]oxazino[2,3-e]isoindol-2-yl)piperidine-2,6-dione]: the DC50 was > 0.1 µM.

For the origin of these results see US20260028354A1, “TETRAHYDRONAPHTHALENE DERIVATIVES AS ESTROGEN RECEPTOR DEGRADERS” (REGENT OF THE UNIVERSITY OF MICHIGAN, priority 2022, published 2026).
